Test results reported in paper PMC8501799, “Constitutive signal bias mediated by the human GHRHR splice variant 1” (Proceedings of the National Academy of Sciences of the …, 2021).

Assays:
Assay type in all cases: cell-based, human
22Rv1 cells = assay: ERK1/2 phosphorylation in prostate cancer cells; details: 1 μM GHRH; among three prostate cancer cell lines
Experimental: Spodoptera frugiperda (Sf9) insect cells (Expression Systems) were grown in ESF 921 serum-free medium (Expression Systems) at 27 °C and 120 rpm. HEK293T cells were purchased from American Type Culture Collection (ATCC), cultured in Dulbecco’s modified Eagle’s medium (DMEM; Life Technologies), supplemented with 10% fetal bovine serum (FBS; Gibco), and maintained in a humidified chamber with 5% CO2 at 37 °C. The PC3 prostate cancer cell line (ATCC) was cultured in F12 medium supplemented with 10% FBS and maintained in a humidified chamber with 5% CO2 at 37 °C. 22Rv1 and LNCaP human prostate cancer cells (ATCC) were cultured in Roswell Park Memorial Institute (RPMI)-1640 medium supplemented with 10% FBS and maintained in a humidified atmosphere containing 5% CO2 at 37 °C.
ERK1/2 phosphorylation was detected with the AlphaScreen SureFire ERK1/2 assay kit (PerkinElmer). […] The plate was incubated in the dark at 37 °C for 1 h, after which the fluorescence signal was measured by an Envision plate reader using standard AlphaScreen settings.
The cells were then lysed with radioimmunoprecipitation assay lysis buffer (Sigma-Aldrich) on ice for 5 min and centrifuged at 12,000 rpm for 15 min. Protein concentration of the supernatant was determined by BCA protein assay kit (Beyotime). […]

GHRHR ΔECD = assay: cAMP accumulation
Experimental: (§1) GHRH-stimulated cAMP accumulation was measured by a LANCE Ultra cAMP kit (PerkinElmer). Briefly, HEK293T cells (24 h after transfection with SV1 or GHRHR) or prostate cancer cells were digested by 0.2% (wt/vol) EDTA and washed once with Dulbecco’s phosphate-buffered saline (PBS). Cells were then resuspended with stimulation buffer (Hanks’ balanced salt solution [HBSS] supplemented with 5 mM HEPES, 0.5 mM IBMX, and 0.1% [wt/vol] bovine serum albumin [BSA], pH 7.4) to a density of 0.6 million cells per milliliter and added to 384-well white plates (3,000 cells per well). […] The reaction was stopped by adding 5 μL Eu-cAMP tracer and 5 μL ULight-anti-cAMP. After 1 h RT incubation, TR-FRET signals (excitation: 320 nm, emission: 615 and 665 nm) were measured by an Envision plate reader (PerkinElmer). cAMP concentrations were interpolated by a standard curve.
(§2) All functional study data were analyzed using Prism 7 (GraphPad) and presented as means ± SEM from at least three independent experiments. Concentration-response curves were evaluated with a three-parameter logistic equation. The significance was determined with either two-tailed Student’s t test or one-way ANOVA, and P < 0.05 is considered statistically significant.
Table S2. Effects of residue mutation or truncation in the ECD of GHRHR on GHRH-induced cAMP […]
Mutant pEC50 Emax (% WT GHRHR) expression ΔLog (τ/KA) […]
cAMP accumulation data were analyzed using a three-parameter logistic equation to determine pEC50 and Emax values. pEC50 is the negative logarithm of the molar concentration of agonist that induced half the maximal response. Emax for mutants is expressed as a percentage of the WT GHRHR. Data were analyzed by nonlinear regression using the operational model equation to determine t he logR values (logτ/KA, i.e., logarithm of the transduction ratio). τ is the effi cacy value of the agonist and was corrected by cell surface expression of the receptor. KA is dissociation constant. Changes in transduction ratio (ΔlogR) were calculated to determine the relative effectiveness of the mutants. All values are means ± S.E.M. of at le ast three ind ep en dent experiments (n = 3-5) conducted in quadruplicate. Statistical analysis was carried out by comparing the control responses in the WT GHRHR. **, P < 0.01 and ***, P < 0.001, determined by one-way

[1] = test system: GHRHR ECD mutants (L34, L62, F82, F85 to alanine); assay: cAMP accumulation, ECD alanine mutants of GHRHR; details: any or all of four ECD residues (L34, L62, F82, F85) to alanine; HEK293T
Experimental: as §1

SV1 L290A = assay: cAMP accumulation; details: Table S4, mean ± SEM
Experimental: as §1, §2
Table S4. Effects of residue mutation in the ligand-binding pocket of SV1 on GHRH-induced cAMP […]
Mutant pEC50 Emax Cell surface expression ΔLog (τ/KA)
(% WT GHRHR) (% WT GHRHR) cAMP accumulation data were analyzed using a three-parameter logistic equation to determine pEC50 and Emax values. pEC50 is the negative logarithm of the molar concentration of agonist that induced half the maximal response. Emax for mutants is expressed as a percentage of the WT GHRHR. Data were analyzed by nonlinear regression using the operational model equation to determine t he logR values (logτ/KA, i.e., logarithm of the transduction ratio). τ is the effi cacy value of the agonist and was corrected by cell surface expression of the receptor. KA is dissociation constant. Changes in transduction ratio (ΔlogR) were calculated to determine the relative effectiveness of the mutants. All values are means ± S.E.M. of four independent experiments (n = 4) conducted in quadruplicate. Statistical analysis was carried out by comparing the control responses in the WT-SV1. *, P < 0.05, **, P < 0.01 and ***, P < 0.001, determined by one-way

## CC[C@H](C)[C@H](NC(=O)[C@H](C)NC(=O)[C@H](CC(=O)O)NC(=O)[C@H](C)NC(=O)[C@@H](N)Cc1ccc(O)cc1)C(=O)N[C@@H](Cc1ccccc1)C(=O)N[C@H](C(=O)N[C@@H](CC(N)=O)C(=O)N[C@@H](CO)C(=O)N[C@@H](Cc1ccc(O)cc1)C(=O)N[C@@H](CCCNC(=N)N)C(=O)N[C@@H](CCCCN)C(=O)N[C@H](C(=O)N[C@@H](CC(C)C)C(=O)NCC(=O)N[C@@H](CCC(N)=O)C(=O)N[C@@H](CC(C)C)C(=O)N[C@@H](CO)C(=O)N[C@@H](C)C(=O)N[C@@H](CCCNC(=N)N)C(=O)N[C@@H](CCCCN)C(=O)N[C@@H](CC(C)C)C(=O)N[C@@H](CC(C)C)C(=O)N[C@@H](CCC(N)=O)C(=O)N[C@@H](CC(=O)O)C(=O)N[C@H](C(=O)N[C@@H](CCSC)C(=O)N[C@@H](CO)C(=O)N[C@@H](CCCNC(=N)N)C(=O)N[C@@H](CCC(N)=O)C(=O)N[C@@H](CCC(N)=O)C(=O)NCC(=O)N[C@@H](CCC(=O)O)C(=O)N[C@@H](CO)C(=O)N[C@@H](CC(N)=O)C(=O)N[C@@H](CCC(N)=O)C(=O)N[C@@H](CCC(=O)O)C(=O)N[C@@H](CCCNC(=N)N)C(=O)NCC(=O)N[C@@H](C)C(=O)N[C@@H](CCCNC(=N)N)C(=O)N[C@@H](C)C(=O)N[C@@H](CCCNC(=N)N)C(=O)N[C@@H](CC(C)C)C(N)=O)[C@@H](C)CC)C(C)C)[C@@H](C)O [GHRH, growth hormone–releasing hormone]
22Rv1 cells
  pERK1/2 response: markedly stronger and longer pERK1/2 response
GHRHR ΔECD; HEK293T, Fig. 1B
  cAMP responses after deletion of the entire ECD: diminished cAMP responses
GHRHR ΔECD; Table S2, HEK293T, LANCE Ultra cAMP, 30 min RT, 0.5 mM IBMX, mean ± SEM, n = 3-5 in quadruplicate
  pEC50 of cAMP accumulation: 5.53 ± 0.07
GHRHR ΔECD; Table S2, HEK293T, mean ± SEM, n = 3-5 in quadruplicate
  Emax of cAMP accumulation: 111.27 ± 3.65 % WT GHRHR
GHRHR ΔECD; Table S2, operational model, τ corrected by cell surface expression, relative to WT GHRHR, mean ± SEM
  ΔLog (τ/KA): -4.55 ± 0.04
[1]
  GHRHR-elicited cAMP responses: reduced GHRHR-elicited cAMP responses
SV1 L290A; HEK293T, LANCE Ultra cAMP, 30 min RT, 0.5 mM IBMX, n = 4 in quadruplicate
  pEC50 of cAMP accumulation: 5.58 ± 0.08
SV1 L290A; HEK293T, n = 4 in quadruplicate
  Emax of cAMP accumulation: 109.60 ± 3.90 % WT GHRHR
SV1 L290A; operational model, τ corrected by cell surface expression, n = 4
  ΔLog (τ/KA): -4.56 ± 0.09
